Test results reported in patent publication US20140228384A1, “ASSAYS AND BIOMARKERS FOR LRRK2” (Genentech, Inc., priority 2011, published 2014).

What was measured:
[1] = test system: hippocampal neurons derived from LRRK2 BAC transgenic mice; conditions: dose-dependent manner
LRRK2 = LRRK2 (Homo sapiens, UniProt Q5S007); experiment: biochemical
Sequence of LRRK2 (Q5S007 whole entry): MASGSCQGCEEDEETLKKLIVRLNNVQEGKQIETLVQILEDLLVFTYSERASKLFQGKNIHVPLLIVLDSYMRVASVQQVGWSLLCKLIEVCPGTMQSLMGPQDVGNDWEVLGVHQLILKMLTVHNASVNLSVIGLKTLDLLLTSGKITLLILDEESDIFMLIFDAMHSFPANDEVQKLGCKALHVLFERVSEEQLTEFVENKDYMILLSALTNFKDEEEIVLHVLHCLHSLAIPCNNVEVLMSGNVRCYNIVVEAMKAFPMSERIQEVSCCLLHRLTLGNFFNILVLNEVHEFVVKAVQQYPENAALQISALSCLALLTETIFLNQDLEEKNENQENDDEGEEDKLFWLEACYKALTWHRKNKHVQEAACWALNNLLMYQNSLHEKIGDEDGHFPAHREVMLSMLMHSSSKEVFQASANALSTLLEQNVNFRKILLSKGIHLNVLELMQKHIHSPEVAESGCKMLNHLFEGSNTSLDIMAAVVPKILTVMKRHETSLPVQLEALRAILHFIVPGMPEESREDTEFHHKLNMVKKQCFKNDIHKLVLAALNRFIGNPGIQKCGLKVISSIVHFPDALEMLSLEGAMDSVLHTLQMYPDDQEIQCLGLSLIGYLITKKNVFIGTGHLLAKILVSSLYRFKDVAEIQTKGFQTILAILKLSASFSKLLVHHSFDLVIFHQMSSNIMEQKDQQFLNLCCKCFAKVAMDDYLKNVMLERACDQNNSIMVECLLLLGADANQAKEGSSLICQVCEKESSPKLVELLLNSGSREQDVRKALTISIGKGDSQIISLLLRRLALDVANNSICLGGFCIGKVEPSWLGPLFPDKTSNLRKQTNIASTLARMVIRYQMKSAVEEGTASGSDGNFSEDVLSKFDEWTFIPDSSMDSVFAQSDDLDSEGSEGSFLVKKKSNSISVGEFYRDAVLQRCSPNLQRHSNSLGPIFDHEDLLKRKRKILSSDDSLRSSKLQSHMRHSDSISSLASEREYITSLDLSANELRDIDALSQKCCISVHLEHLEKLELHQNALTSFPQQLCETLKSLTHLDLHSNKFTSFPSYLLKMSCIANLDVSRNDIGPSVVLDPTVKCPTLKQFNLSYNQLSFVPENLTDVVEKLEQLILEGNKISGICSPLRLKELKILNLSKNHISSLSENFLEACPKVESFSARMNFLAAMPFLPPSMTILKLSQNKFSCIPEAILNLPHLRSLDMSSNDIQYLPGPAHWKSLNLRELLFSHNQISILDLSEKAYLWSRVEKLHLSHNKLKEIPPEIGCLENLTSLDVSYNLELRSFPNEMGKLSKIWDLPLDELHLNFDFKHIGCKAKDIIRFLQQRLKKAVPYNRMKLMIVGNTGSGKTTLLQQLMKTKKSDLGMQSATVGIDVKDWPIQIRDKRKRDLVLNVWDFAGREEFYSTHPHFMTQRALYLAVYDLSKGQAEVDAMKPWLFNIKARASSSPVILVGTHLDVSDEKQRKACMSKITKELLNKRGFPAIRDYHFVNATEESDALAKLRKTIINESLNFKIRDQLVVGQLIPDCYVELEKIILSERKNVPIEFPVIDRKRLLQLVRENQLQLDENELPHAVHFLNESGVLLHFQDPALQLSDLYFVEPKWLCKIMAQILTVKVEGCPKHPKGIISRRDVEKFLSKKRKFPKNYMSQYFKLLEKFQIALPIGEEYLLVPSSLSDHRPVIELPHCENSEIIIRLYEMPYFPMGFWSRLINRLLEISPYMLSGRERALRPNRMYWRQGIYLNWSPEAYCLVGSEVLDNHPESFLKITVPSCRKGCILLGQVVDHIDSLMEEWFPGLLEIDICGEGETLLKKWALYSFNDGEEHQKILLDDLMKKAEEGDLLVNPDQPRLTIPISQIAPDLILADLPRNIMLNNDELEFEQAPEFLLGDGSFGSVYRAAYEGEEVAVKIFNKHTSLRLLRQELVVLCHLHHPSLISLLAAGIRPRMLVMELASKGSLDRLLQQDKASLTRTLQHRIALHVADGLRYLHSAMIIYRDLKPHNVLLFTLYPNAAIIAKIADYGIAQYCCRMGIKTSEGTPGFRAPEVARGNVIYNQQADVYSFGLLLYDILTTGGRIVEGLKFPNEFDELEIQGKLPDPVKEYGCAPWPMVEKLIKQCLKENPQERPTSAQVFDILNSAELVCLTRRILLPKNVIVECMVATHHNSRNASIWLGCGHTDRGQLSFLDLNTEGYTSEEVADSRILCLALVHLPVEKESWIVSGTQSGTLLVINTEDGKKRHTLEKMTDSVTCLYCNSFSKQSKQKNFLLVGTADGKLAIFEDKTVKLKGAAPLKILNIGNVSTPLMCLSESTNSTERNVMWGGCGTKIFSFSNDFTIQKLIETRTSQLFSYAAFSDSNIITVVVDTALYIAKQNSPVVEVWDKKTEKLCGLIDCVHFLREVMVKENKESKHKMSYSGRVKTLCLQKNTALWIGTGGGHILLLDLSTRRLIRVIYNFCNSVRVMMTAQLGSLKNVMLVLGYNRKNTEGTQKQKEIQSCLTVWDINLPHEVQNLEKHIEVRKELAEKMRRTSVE

## CNc1nc(Nc2ccc(C(=O)N3CCOCC3)cc2OC)ncc1C(F)(F)F [G1023, [3-methoxy-4-(4-methylamino-5-trifluoromethyl-pyrimidin-2-ylamino)-phenyl]-morpholin-4-yl-methanone]
[1]
  neurite outgrowth defect (total neurite length): reversed neurite outgrowth defect
LRRK2
  Ki: ~4 nM
